Experimental data: patent US20250250285A1, “IRON-ACTIVABLE NITROGEN-CONTAINING DERIVATIVES OF SALINOMYCIN AND NARASIN, SYNTHESIS AND USE FOR THE TREATMENT OF CANCERS” (Centre National de la Recherche Scientifique, priority 2021, published 2025)
Where two headings read alike, the source gives them in different places.

Key:
PDAC211T = test: Cell viability (CellTiter-Blue), IC50 on PDAC211T; type: cell-based, human; details: 72 h treatment
Procedure: (§2) Cell viability was evaluated by plating 4000 cells/well in 96-well plates using CellTiter-Blue viability assay according to the manufacturer's protocol. […] CellTiter-Blue reagent (Promega, G8081) was added after 72 h treatment and cells were incubated for 2 h before recording fluorescence intensities (ex. 560 nm; em. 590 nm) using a Perkin Elmer Wallac 1420 Victor2 Microplate Reader.

PDAC030T = test: Cell viability (CellTiter-Blue), IC50 on PDAC030T; type: cell-based, human; details: 72 h treatment
Procedure: as §2

PDAC090T = test: Cell viability (CellTiter-Blue), IC50 on PDAC090T; type: cell-based, human; details: 72 h treatment
Procedure: as §2

MCF10A = test: IC50 on nontumorigenic epithelial breast cell MCF10A; details: for toxicity toward nontumorigenic epithelial cells compared with respective parent compound: in words, versus parent compound
Procedure: as §2
In addition to the above distinct patient-derived pancreatic ductal adenocarcinoma (PDAC) cell lines, the compounds were also evaluated against nontumorigenic epithelial breast cell MCF10A.

[1] = tested on: HMLER CD44^high/CD24^low cells; test: IC50 on HMLER CD44high/CD24low cells (breast cancer stem cell model); type: cell-based, human; details: mesenchymal state
Source text: (§1) The inventors also evaluated the biological activity of prodrugs and parent structures against transformed human mammary epithelial HMLER CD44^high/CD24^low cells, a model of human breast cancer stem cells stable in the mesenchymal state, and against control epithelial HMLER CD44^low/CD24^high cells.

PDAC053T = test: Cell viability (CellTiter-Blue), IC50 on PDAC053T; type: cell-based, human; details: for IC50: PDAC053T, 72 h treatment, CellTiter-Blue
Procedure: PDAC053T cells were a generous gift from Juan Iovanna (INSERM) and cultured in serum-free ductal medium as published before (Gastroenterology. 2004, 127(1):250-260). Liproxstatin-1 (Sigma Aldrich, Cat #SML1414) was used at a concentration of 1 μM.

PDAC085T = test: Cell viability (CellTiter-Blue), IC50 on PDAC085T; type: cell-based, human; details: 72 h treatment
Procedure: as §2

[2] = tested on: HMLER CD44^low/CD24^high cells; test: IC50 on control epithelial HMLER CD44low/CD24high cells; type: cell-based, human
Source text: as §1

[3] = MCF10A nontumorigenic epithelial breast cell

Compound C#CCN[C@@H]1C=C[C@]2(O[C@H]([C@@H](CC)C(=O)[C@@H](C)[C@@H](O)[C@H](C)C3O[C@@H](C(CC)C(=O)OC)CC[C@@H]3C)[C@@H](C)C[C@H]2C)O[C@@]12CC[C@@](C)([C@H]1CC[C@](O)(CC)[C@H](C)O1)O2 (some centres unmarked) [AM9, C1 Methyl Ester of Ironomycin, reference compound] has an IC50 (PDAC211T) of 5010 nM, an IC50 (PDAC030T) of 5670 nM and an IC50 (PDAC090T) of 5890 nM. It also gave an IC50 (MCF10A; [3]) of 12200 nM, an IC50 [1] of 13200 nM and an IC50 (PDAC053T) of 7460 nM. It also gave an IC50 (PDAC085T) of 8880 nM and an IC50 [2] of 15200 nM.
For C[C@H]1[C@@H](O)O[C@@H]2O[C@@]3(C)CC[C@H]4[C@H](C)CC[C@@H]1[C@@]24OO3 [DHA, dihydroartemisinin, reference compound], the IC50 (PDAC211T; Homo sapiens) was 10300 nM, the IC50 (PDAC030T; Homo sapiens) was 8080 nM and the IC50 (PDAC090T; Homo sapiens) was 35400 nM. For the same compound, the IC50 (MCF10A; Homo sapiens, MCF-10A) was 5450 nM, the IC50 ([1]; Homo sapiens) was 2850 nM and the IC50 (PDAC053T; Homo sapiens) was > 50000 nM. The IC50 (PDAC085T; Homo sapiens) was 21600 nM and the IC50 ([2]; Homo sapiens) was 14200 nM.
Work on C#CCN[C@@H]1C=C[C@]2(O[C@H]([C@@H](CC)C(=O)[C@@H](C)[C@@H](O)[C@H](C)[C@@H]3O[C@@H]([C@@H](CC)C(=O)O)CC[C@@H]3C)[C@@H](C)C[C@H]2C)O[C@@]12CC[C@@](C)([C@H]1CC[C@](O)(CC)[C@H](C)O1)O2 [Ironomycin, reference compound] yielded an IC50 (PDAC211T) of 180 nM, an IC50 (PDAC030T) of 2670 nM and an IC50 (PDAC090T) of 630 nM. The IC50 (MCF10A; [3]) was 120 nM, the IC50 [1] was 160 nM and the IC50 (PDAC053T) was 2600 nM. It also gave an IC50 (PDAC085T) of 720 nM and an IC50 [2] of 1790 nM.
For CC[C@@H](C(=O)[C@@H](C)[C@@H](O)[C@H](C)[C@@H]1O[C@@H]([C@@H](CC)C(=O)OC2O[C@@H]3O[C@]4(C)CC[C@H]5[C@H](C)CC[C@@H]([C@H]2C)[C@@]35OO4)CC[C@@H]1C)[C@H]1O[C@]2(C=C[C@@H](O)[C@]3(CC[C@@](C)([C@H]4CC[C@](O)(CC)[C@H](C)O4)O3)O2)[C@H](C)C[C@@H]1C (some centres unmarked) [MA-I-023, Salinomycin-dihydroartemisinin prodrug], the IC50 (PDAC211T; Homo sapiens) was 3130 nM, the IC50 (PDAC030T; Homo sapiens) was 750 nM and the IC50 (PDAC090T; Homo sapiens) was 4530 nM. For the same compound, the IC50 ([1]; Homo sapiens) was 480 nM, the IC50 (PDAC053T; Homo sapiens) was 3880 nM and the IC50 (PDAC085T; Homo sapiens) was 3320 nM. It also gave an IC50 ([2]; Homo sapiens) of 820 nM.
Work on C#CCN[C@@H]1C=C[C@]2(O[C@H]([C@@H](CC)C(=O)[C@@H](C)[C@@H](O)[C@H](C)[C@@H]3O[C@@H]([C@@H](CC)C(=O)OC4O[C@@H]5O[C@]6(C)CC[C@H]7[C@H](C)CC[C@@H]([C@H]4C)[C@@]57OO6)CC[C@@H]3C)[C@@H](C)C[C@H]2C)O[C@@]12CC[C@@](C)([C@H]1CC[C@](O)(CC)[C@H](C)O1)O2 (some centres unmarked) [MA-I-062, Ironomycin-dihydroartemisinin prodrug] yielded an IC50 (PDAC211T; Homo sapiens) of 100 nM, an IC50 (PDAC030T; Homo sapiens) of 500 nM and an IC50 (PDAC090T; Homo sapiens) of 2190 nM. The IC50 (MCF10A; Homo sapiens, MCF-10A) was 2030 nM, the “toxicity toward nontumorigenic epithelial cells compared with respective parent compound” value (MCF10A) was “less toxic” and the IC50 ([1]; Homo sapiens) was 160 nM. For the same compound, the IC50 (PDAC053T; Homo sapiens) was 1790 nM, the IC50 (PDAC085T; Homo sapiens) was 1170 nM and the IC50 ([2]; Homo sapiens) was 480 nM.
CC[C@@H](C(=O)OC1O[C@@H]2O[C@]3(C)CC[C@H]4[C@H](C)CC[C@@H]([C@H]1C)[C@@]24OO3)[C@@H]1O[C@@H]([C@@H](C)[C@H](O)[C@H](C)C(=O)[C@H](CC)[C@H]2O[C@]3(C=C[C@@H](O)[C@]4(CC[C@@](C)([C@H]5CC[C@](O)(CC)[C@H](C)O5)O4)O3)[C@H](C)C[C@@H]2C)[C@@H](C)C[C@@H]1C (some centres unmarked) [MA-I-081, narasin-dihydroartemisinin prodrug] gave an IC50 (PDAC211T; Homo sapiens) of 450 nM, an IC50 (PDAC030T; Homo sapiens) of 90 nM and an IC50 (PDAC090T; Homo sapiens) of 740 nM. The IC50 ([1]; Homo sapiens) was 190 nM, the IC50 (PDAC053T; Homo sapiens) was 540 nM and the IC50 (PDAC085T; Homo sapiens) was 440 nM. The IC50 ([2]; Homo sapiens) was 500 nM.
CC[C@@H](C(=O)OC1O[C@@H]2O[C@]3(C)CC[C@H]4[C@H](C)CC[C@@H]([C@H]1C)[C@@]24OO3)[C@@H]1O[C@@H]([C@@H](C)[C@H](O)[C@H](C)C(=O)[C@H](CC)[C@H]2O[C@]3(C=C[C@@H](NC4CC4)[C@]4(CC[C@@](C)([C@H]5CC[C@](O)(CC)[C@H](C)O5)O4)O3)[C@H](C)C[C@@H]2C)[C@@H](C)C[C@@H]1C (some centres unmarked) [MA-I-095, C20-cyclopropylaminonarasin-dihydroartemisinin prodrug] was tested, and the IC50 (PDAC211T; Homo sapiens) was 490 nM, the IC50 (PDAC030T; Homo sapiens) was 120 nM and the IC50 (PDAC090T; Homo sapiens) was 180 nM. The IC50 (MCF10A; Homo sapiens, MCF-10A) was 5240 nM, the “toxicity toward nontumorigenic epithelial cells compared with respective parent compound” value (MCF10A) was “less toxic” and the IC50 ([1]; Homo sapiens) was 760 nM. For the same compound, the IC50 (PDAC053T; Homo sapiens) was 90 nM, the “potency compared with Nar-AM23” value (PDAC053T; PDAC053T cells, in words) was “more potent” and the IC50 (PDAC085T; Homo sapiens) was 70 nM. For the same compound, the IC50 ([2]; Homo sapiens) was 1960 nM.
With C#CCN[C@H]1C=C[C@]2(O[C@H]([C@@H](CC)C(=O)[C@@H](C)[C@@H](O)[C@H](C)[C@@H]3O[C@@H]([C@@H](CC)C(=O)OC4O[C@@H]5O[C@]6(C)CC[C@H]7[C@H](C)CC[C@@H]([C@H]4C)[C@@]57OO6)CC[C@@H]3C)[C@@H](C)C[C@H]2C)O[C@@]12CC[C@@](C)([C@H]1CC[C@](O)(CC)[C@H](C)O1)O2 (some centres unmarked) [MA-I-096] the IC50 (PDAC211T; Homo sapiens) was 330 nM, the IC50 (PDAC030T; Homo sapiens) was 90 nM and the IC50 (PDAC090T; Homo sapiens) was 690 nM. The IC50 (MCF10A; Homo sapiens, MCF-10A) was 1370 nM, the IC50 ([1]; Homo sapiens) was 200 nM and the IC50 (PDAC053T; Homo sapiens) was 520 nM. It also gave an IC50 (PDAC085T; Homo sapiens) of 360 nM and an IC50 ([2]; Homo sapiens) of 360 nM.
For CC[C@@H](C(=O)O)[C@@H]1O[C@@H]([C@@H](C)[C@H](O)[C@H](C)C(=O)[C@H](CC)[C@H]2O[C@]3(C=C[C@@H](O)[C@]4(CC[C@@](C)([C@H]5CC[C@](O)(CC)[C@H](C)O5)O4)O3)[C@H](C)C[C@@H]2C)[C@@H](C)C[C@@H]1C [Narasin], the IC50 (PDAC211T; Homo sapiens) was 730 nM, the IC50 (PDAC030T; Homo sapiens) was 1180 nM and the IC50 (PDAC090T; Homo sapiens) was 1160 nM. The IC50 (MCF10A; Homo sapiens, MCF-10A) was 790 nM, the IC50 ([1]; Homo sapiens) was 450 nM and the IC50 (PDAC053T; Homo sapiens) was 2000 nM. For the same compound, the IC50 (PDAC085T; Homo sapiens) was 500 nM and the IC50 ([2]; Homo sapiens) was 2960 nM.
For CC[C@@H](C(=O)[C@@H](C)[C@@H](O)[C@H](C)[C@@H]1O[C@@H]([C@@H](CC)C(=O)O)CC[C@@H]1C)[C@H]1O[C@]2(C=C[C@@H](O)[C@]3(CC[C@@](C)([C@H]4CC[C@](O)(CC)[C@H](C)O4)O3)O2)[C@H](C)C[C@@H]1C [Salinomycin], the IC50 (PDAC211T; Homo sapiens) was 1290 nM, the IC50 (PDAC030T; Homo sapiens) was 1610 nM and the IC50 (PDAC090T; Homo sapiens) was 2660 nM. For the same compound, the IC50 (MCF10A; Homo sapiens, MCF-10A) was 1130 nM, the IC50 ([1]; Homo sapiens) was 1380 nM and the IC50 (PDAC053T; Homo sapiens) was 4500 nM. The IC50 (PDAC085T; Homo sapiens) was 1560 nM and the IC50 ([2]; Homo sapiens) was 4360 nM.
“C20-cyclopropylaminosalinomycin [AM23, reference compound]” showed an IC50 (PDAC211T) of 40 nM, an IC50 (PDAC030T) of 110 nM and an IC50 (PDAC090T) of 210 nM. The IC50 (MCF10A; [3]) was 300 nM, the IC50 [1] was 10 nM and the IC50 (PDAC053T) was 830 nM. The IC50 (PDAC085T) was 360 nM and the IC50 [2] was 500 nM.
Work on C20-cyclopropyloaminonarasin [Nar-AM23] yielded an IC50 (PDAC211T) of 50 nM, an IC50 (PDAC030T) of 60 nM and an IC50 (PDAC090T) of 320 nM. The IC50 (MCF10A; [3]) was 100 nM, the IC50 [1] was 10 nM and the IC50 (PDAC053T) was 200 nM. For the same compound, the IC50 (PDAC085T) was 40 nM and the IC50 [2] was 450 nM.
Compound C20-epi-ironomycin [Epi-AM5] has an IC50 (PDAC211T) of 1480 nM, an IC50 (PDAC030T) of 2870 nM and an IC50 (PDAC090T) of 4160 nM. The IC50 (MCF10A; [3]) was 1340 nM, the IC50 [1] was 1800 nM and the IC50 (PDAC053T) was 2170 nM. For the same compound, the IC50 (PDAC085T) was 670 nM and the IC50 [2] was 11800 nM.
C20-propargyloaminonarasin [Nar-AM5] showed an IC50 (PDAC211T) of 220 nM, an IC50 (PDAC030T) of 220 nM and an IC50 (PDAC090T) of 800 nM. It also gave an IC50 (MCF10A; [3]) of 220 nM, an IC50 [1] of 110 nM and an IC50 (PDAC053T) of 880 nM. For the same compound, the IC50 (PDAC085T) was 120 nM and the IC50 [2] was 1080 nM.
